BindingDB's records for patent US20250066318 (Prothena Biosciences, 2025)

Biological target: Dual specificity tyrosine-phosphorylation-regulated kinase 1A (Homo sapiens, UniProt Q13627)
Test: DYRK1A Inhibition Assay
Protocol: 1. Add 5 μL enzyme & substrate mixture to each well in Column 2-23 and A24-H24 wells of the 384-well assay plate;2. Add 5 μL 0% Phosphorylation control to A1-H1 and I24-P24 wells of the assay plate;3. Add 5 μL 100% Phosphorylation control to I1-P1 wells of the assay plate;4. Spin the assay plate (1000 rpm, 1 minute @23° C.);5. Incubate enzyme with compounds for 15 minutes at 23° C.;6. Add 5 μL ATP solution to each well of the assay plate;7. Spin the plate (1000 rpm, 1 minute @23° C.);8. Incubate the assay plate for 90 minutes at 23° C.;9. Add 10 μL Development reagent A to each well of the assay plate;10. Centrifuge the plate at 1000 rpm about 15 seconds and seal a film over assay plate. Incubate the assay plate for 30 minutes at 23° C.11. Read assay plates on Envision (see Tables A, B, and C).Final Compound ConcentrationsAssay buffer: 50 mM Hepes pH7.5, 10 mM MgCl2, 1 mM EDTA, 0.01% Brij-35DYRK1A: 1 nMATP: 20 μMSer/Thr 18 peptide: 2 μMReaction time: 90 minutes.

IC50 [nM]	Compound
550	N#Cc1cccc(Oc2cncc3ccc(-c4cnc5ccccn45)cc23)c1 [US20250066318, Compound I.6]
55	Cc1c(F)ncc2ccc(-c3cnn(C)c3)cc12 [US20250066318, Compound I.64]
> 1000	O=C(O)[C@H]1C[C@H](Nc2c(-c3cncs3)ccc3cnccc23)C1 [US20250066318, Compound I.67]
550	O=C(O)[C@H]1C[C@@H](Nc2c(-c3cncs3)ccc3cnccc23)C1 [US20250066318, Compound I.68]
550	O=C(O)[C@H]1C[C@@H](Oc2c(-c3cncs3)ccc3cnccc23)C1 [US20250066318, Compound I.69]
550	O=C(O)[C@H]1C[C@H](Oc2c(-c3cncs3)ccc3cnccc23)C1 [US20250066318, Compound I.70]
55	O=C(O)[C@H]1C[C@@H](Nc2ncc(-c3ccc4cnccc4c3)s2)C1 [US20250066318, Compound I.71]
< 10	O=C(O)C1CN(c2cn3ncc(-c4ccc5cnccc5c4)c3cn2)C1 [US20250066318, Compound I.73]
55	O=C(O)C1CC(Nc2cc3cc(-c4cncs4)ccc3cn2)C1 (stereo not drawn) [US20250066318, Compound I.74]
55	Cc1ncc2ccc(-c3cncs3)cc2c1OC1CNC1 [US20250066318, Compound I.75]
550	Cc1ncc2ccc(-c3cncs3)cc2c1OC1CN(C)C1 [US20250066318, Compound I.76]
55	Cc1ncc2ccc(-c3cnn(C)c3)cc2c1OC1CNC1 [US20250066318, Compound I.77]
55	Cc1ncc2ccc(-c3cnn(C)c3)cc2c1OC1CN(C)C1 [US20250066318, Compound I.78]
< 10	Cc1ncc2ccc(-c3cncs3)cc2c1O[C@H]1C[C@@H](O)C1 [US20250066318, Compound I.79]
< 10	Cc1ncc2ccc(-c3cncs3)cc2c1O[C@H]1C[C@H](O)C1 [US20250066318, Compound I.80]
< 10	Cc1ncc2ccc(-c3cnn(C)c3)cc2c1O[C@H]1C[C@@H](O)C1 [US20250066318, Compound I.81]
< 10	Cc1ncc2ccc(-c3cnn(C)c3)cc2c1O[C@H]1C[C@H](O)C1 [US20250066318, Compound I.82]
< 10	Cn1cc(-c2ccc3cnc(NC(=O)OC4(C)CC4)cc3c2)cn1 [US20250066318, Compound I.83]
< 10	CS(=O)(=O)N1CCC(Oc2cncc3ccc(-c4cnn5cc(C(F)(F)F)ccc45)cc23)CC1 [US20250066318, Compound I.85]
< 10	CC(=O)N1CCC(Oc2cncc3ccc(-c4cnn5cc(C(F)(F)F)ccc45)cc23)CC1 [US20250066318, Compound I.86]
550	O=C(O)C1CCN(Cc2cncc3ccc(-c4cnn5cc(C(F)(F)F)ccc45)cc23)CC1 [US20250066318, Compound I.88]

IC50 [nM]	Compound
55	CC(=O)N1CCN(Cc2cncc3ccc(-c4cnn5cc(C(F)(F)F)ccc45)cc23)CC1 [US20250066318, Compound I.89]
< 10	Cn1cc(C#Cc2ncc(-c3ccc4cnccc4c3)s2)ccc1=O [US20250066318, Compound I.92]
< 10	COc1cncc2ccc(-c3cnn4cc(-c5ccc(=O)n(C)c5)cnc34)cc12 [US20250066318, Compound I.93]
550	N#Cc1cncc2ccc(-c3cnc(C#CC4CCOCC4)s3)cc12 [US20250066318, Compound I.94]
< 10	C(#CC1CCOCC1)c1ncc(-c2ccc3cncc(OC4CCNCC4)c3c2)s1 [US20250066318, Compound I.95]
< 10	CC(=O)N1CCC(Oc2cncc3ccc(-c4cnc(C#CC5CCOCC5)s4)cc23)CC1 [US20250066318, Compound I.96]
< 10	CN1CCC(Oc2cncc3ccc(-c4cnc(C#CC5CCOCC5)s4)cc23)CC1 [US20250066318, Compound I.97]
550	C(#CC1CCOCC1)c1ncc(-c2ccc3cnc(OC4CCNCC4)cc3c2)s1 [US20250066318, Compound I.98]
> 1000	CC(=O)N1CCC(Oc2cc3cc(-c4cnc(C#CC5CCOCC5)s4)ccc3cn2)CC1 [US20250066318, Compound I.99]
550	CN1CCC(Oc2cc3cc(-c4cnc(C#CC5CCOCC5)s4)ccc3cn2)CC1 [US20250066318, Compound I.100]
> 1000	CC(=O)N1CCN(Cc2cc3cc(-c4cnc(C#CC5CCOCC5)s4)ccc3cn2)CC1 [US20250066318, Compound I.101]
> 1000	CN(C)[C@H]1CC[C@H](Oc2cc3cc(-c4cnc(C#CC5CCOCC5)s4)ccc3cn2)CC1 [US20250066318, Compound I.102]
> 1000	CN(C)[C@H]1CC[C@@H](Oc2cc3cc(-c4cnc(C#CC5CCOCC5)s4)ccc3cn2)CC1 [US20250066318, Compound I.103]
55	CC(C)CN1CCC(C#Cc2ncc(-c3ccc4cnc(Cl)cc4c3)s2)CC1 [US20250066318, Compound I.104]
55	CC(C)CN1CCC(C(=O)Nc2ncc(-c3ccc4cnc(C5CC5)cc4c3)s2)CC1 [US20250066318, Compound I.105]
55	Cn1cc(-c2ccc3cnc(C#CC4CCNCC4)cc3c2)cn1 [US20250066318, Compound I.106]
55	CN1CCC(C#Cc2cc3cc(-c4cnn(C)c4)ccc3cn2)CC1 [US20250066318, Compound I.107]
55	Cn1cc(-c2ccc3cnc(C#CC4CCOCC4)cc3c2)cn1 [US20250066318, Compound I.108]
> 1000	CN1CCc2c(c(-c3cnc4c(-c5ccc(C#N)cc5)cnn4c3)cn(C)c2=O)C1 [US20250066318, Compound II.43]
625	Cn1c(C2CCNCC2)cn2ncc(-c3ccc(C#N)cc3)c2c1=O [US20250066318, Compound II.44]
625	CN1CCC(c2cn3ncc(-c4ccc(C#N)cc4)c3c(=O)n2C)CC1 [US20250066318, Compound II.45]

Compound	IC50 [nM]
CN1CC=C(c2cn3ncc(-c4ccc(C#N)cc4)c3c(=O)[nH]2)CC1 [US20250066318, Compound II.46]	175
